“And” between values parts separate entries of the source, which are not always exact repeats. Identical values can stand only once. Inconclusive results and toxic doses are left out. The calls were made as follows: active = survival T/C of 150% or more; inactive = T/C below 125% in these data.
Tested on: P388 leukemia ip, CD2F1 mice, survival T/C
Test: NCI In Vivo Anticancer Drug Screen. Data for tumor model P388 Leukemia (intraperitoneal) in CD2F1 (CDF1) mice
Settings: endpoint: median survival time, higher = longer survival
Summary of the method: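 Mice carrying the transplanted tumor received test compound or vehicle. Survival was recorded in each group, and the value is the treated-group measurement divided by that of the vehicle-treated control group.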

Measured: T/C

C=CCc1cc(Nc2c3ccc(Cl)cc3nc3ccc(OC)cc23)cc(CN(CC)CC)c1O
inactive: dose: 3.12 mg/kg/injection, schedule: Q01DX005 (ip), vehicle: Klucel (hydroxypropylcellulose) (HPC) 106 % of control and 110 % of control | dose: 6.0 mg/kg/injection, schedule: Q01DX005 (ip), vehicle: Klucel (hydroxypropylcellulose) (HPC) 118 % of control | dose: 6.25 mg/kg/injection, schedule: Q01DX005 (ip), vehicle: Klucel (hydroxypropylcellulose) (HPC) 109 % of control and 110 % of control | dose: 12.0 mg/kg/injection, schedule: Q01DX005 (ip), vehicle: Klucel (hydroxypropylcellulose) (HPC) 123 % of control

CN1C(=O)C2N(C(=O)C1(C)S)c1ccccc1C2(C)C (stereo unspecified)
inactive: dose: 50.0 mg/kg/injection, schedule: Q01DX009 (ip), vehicle: saline 102 % of control | dose: 100.0 mg/kg/injection, schedule: Q01DX009 (ip), vehicle: saline 93 % of control | dose: 200.0 mg/kg/injection, schedule: Q01DX009 (ip), vehicle: saline 101 % of control

O=c1c(N=Nc2ccccc2Cl)c(O)n(-c2ccc(Cl)cc2)c(=S)n1-c1ccc(Br)cc1
inactive: dose: 100.0 mg/kg/injection, schedule: Q04DX002 (ip), vehicle: saline with Tween-80 99 % of control | dose: 200.0 mg/kg/injection, schedule: Q04DX002 (ip), vehicle: saline with Tween-80 99 % of control | dose: 400.0 mg/kg/injection, schedule: Q04DX002 (ip), vehicle: saline with Tween-80 112 % of control

c1ccc(Cc2cc(-c3cc(Cc4ccccc4)[nH]n3)n[nH]2)cc1
inactive: dose: 60.0 mg/kg/injection, schedule: Q01DX005 (ip), vehicle: Klucel + Tween-80 101 % of control | dose: 120.0 mg/kg/injection, schedule: Q01DX005 (ip), vehicle: Klucel + Tween-80 106 % of control | dose: 240.0 mg/kg/injection, schedule: Q01DX005 (ip), vehicle: Klucel + Tween-80 107 % of control

CC(C)NC(=O)OCc1c(COC(=O)NC(C)C)c2n(c1-c1ccc(Cl)c(Cl)c1)CCS2(=O)=O
inactive: dose: 25.0 mg/kg/injection, schedule: Q01DX005 (ip), vehicle: saline with Tween-80 106 % of control | dose: 50.0 mg/kg/injection, schedule: Q01DX005 (ip), vehicle: saline with Tween-80 97 % of control | dose: 100.0 mg/kg/injection, schedule: Q01DX005 (ip), vehicle: saline with Tween-80 88 % of control | dose: 200.0 mg/kg/injection, schedule: Q01DX005 (ip), vehicle: saline with Tween-80 86 % of control

O=NNc1ncc([N+](=O)[O-])s1
inactive: dose: 3.12 mg/kg/injection, schedule: Q01DX009 (ip), vehicle: water 103 % of control | dose: 6.25 mg/kg/injection, schedule: Q01DX009 (ip), vehicle: water 97 % of control | dose: 12.5 mg/kg/injection, schedule: Q01DX009 (ip), vehicle: water 94 % of control | dose: 25.0 mg/kg/injection, schedule: Q01DX009 (ip), vehicle: water 100 % of control and 96 % of control | dose: 50.0 mg/kg/injection, schedule: Q01DX009 (ip), vehicle: water 100 % of control and 97 % of control | dose: 100.0 mg/kg/injection, schedule: Q01DX009 (ip), vehicle: water 101 % of control | dose: 200.0 mg/kg/injection, schedule: Q01DX009 (ip), vehicle: water 105 % of control

CC(C)(O)C#CC(F)(F)C(F)(F)C(F)(F)C(F)(F)C(F)(F)C(F)(F)F
inactive: dose: 60.0 mg/kg/injection, schedule: Q01DX005 (ip), vehicle: saline 107 % of control | dose: 120.0 mg/kg/injection, schedule: Q01DX005 (ip), vehicle: saline 105 % of control | dose: 240.0 mg/kg/injection, schedule: Q01DX005 (ip), vehicle: saline 103 % of control

Cc1ccc(Nc2nc(N)nc3nc(N)c(C(N)=O)nc23)cc1
inactive: dose: 25.0 mg/kg/injection, schedule: Q01DX009 (ip), vehicle: saline with Tween-80 100 % of control | dose: 50.0 mg/kg/injection, schedule: Q01DX009 (ip), vehicle: saline with Tween-80 100 % of control | dose: 100.0 mg/kg/injection, schedule: Q01DX009 (ip), vehicle: saline with Tween-80 91 % of control

Oc1c(C(Nc2cccc3cccnc23)c2ccccc2)ccc2cccnc12 (stereo unspecified)
inactive: dose: 25.0 mg/kg/injection, schedule: Q01DX009 (ip), vehicle: Klucel (hydroxypropylcellulose) (HPC) 110 % of control | dose: 50.0 mg/kg/injection, schedule: Q01DX009 (ip), vehicle: Klucel (hydroxypropylcellulose) (HPC) 106 % of control and 111 % of control | dose: 100.0 mg/kg/injection, schedule: Q01DX009 (ip), vehicle: Klucel (hydroxypropylcellulose) (HPC) 106 % of control and 107 % of control

c1ccc2c(c1)N=Nc1ccccc1OCCOCCOCCO2
inactive: dose: 25.0 mg/kg/injection, schedule: Q01DX001 (ip), vehicle: saline with Tween-80 103 % of control | dose: 50.0 mg/kg/injection, schedule: Q01DX001 (ip), vehicle: saline with Tween-80 102 % of control | dose: 100.0 mg/kg/injection, schedule: Q01DX001 (ip), vehicle: saline with Tween-80 92 % of control
